Key:
Assay in all cases: relative viability (nuclei count vs DMSO), 5 days (fraction); higher = more cells survive
[1] = compound: C=C(c1ccc(C(=O)O)cc1)c1cc2c(cc1C)C(C)(C)CCC2(C)C [Bexarotene] + Nc1nc2[nH]cc(CCc3ccc(C(=O)N[C@@H](CCC(=O)O)C(=O)O)cc3)c2c(=O)[nH]1 [Pemetrexed] (partner 0.2 µM)
How it was run: (§1)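 Dosing by pin tool came one day after lung cancer cell lines were seeded in 1536-well plates, using either one drug or a fixed anchor-drug dose plus five library-drug doses (not always all listed) in √10 steps. After 5 days, nuclei were counted on 4× images. Relative viability is treated-well nuclei count divided by vehicle-well nuclei count, and values are medians of duplicate plates.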

[2] = compound: C=C(c1ccc(C(=O)O)cc1)c1cc2c(cc1C)C(C)(C)CCC2(C)C [Bexarotene] + C[C@]1(O)C[C@@H](c2nc(-c3ccc4ccc(-c5ccccc5)nc4c3)c3c(N)nccn32)C1 [Linsitinib] (partner 1 µM)
How it was run: as §1

[3] = compound: C=C(c1ccc(C(=O)O)cc1)c1cc2c(cc1C)C(C)(C)CCC2(C)C [Bexarotene] + O=C(CCCCCCC(=O)Nc1ccccc1)NO [Vorinostat] (partner 1 µM)
How it was run: as §1

[4] = compound: C=C(c1ccc(C(=O)O)cc1)c1cc2c(cc1C)C(C)(C)CCC2(C)C [Bexarotene] + CC1(C)CCC(c2ccc(Cl)cc2)=C(CN2CCN(c3ccc(C(=O)NS(=O)(=O)c4ccc(N[C@H](CCN5CCOCC5)CSc5ccccc5)c(S(=O)(=O)C(F)(F)F)c4)cc3)CC2)C1 [Navitoclax] (partner 0.5 µM)
How it was run: as §1

Cell Line	relative viability ([1]; first compound 0.08 µM)	relative viability ([1]; first compound 0.253 µM)	relative viability ([1]; first compound 0.8 µM)	relative viability ([1]; first compound 2.53 µM)	relative viability ([1]; first compound 8 µM)	relative viability ([2]; first compound 0.08 µM)	relative viability ([2]; first compound 0.253 µM)	relative viability ([2]; first compound 0.8 µM)	relative viability ([2]; first compound 2.53 µM)	relative viability ([2]; first compound 8 µM)	relative viability ([3]; first compound 0.08 µM)	relative viability ([3]; first compound 0.253 µM)	relative viability ([3]; first compound 0.8 µM)	relative viability ([3]; first compound 2.53 µM)	relative viability ([3]; first compound 8 µM)	relative viability ([4]; first compound 0.08 µM)	relative viability ([4]; first compound 0.253 µM)	relative viability ([4]; first compound 0.8 µM)	relative viability ([4]; first compound 2.53 µM)	relative viability ([4]; first compound 8 µM)
201T	0.385	0.295	0.322	0.355	0.347	0.952	1.02	0.874	0.951	0.843	1.03	0.997	0.894	0.888	0.802	1.22	1.21	1.23	1.2	1.12
A-427	0.938	0.872	0.794	0.773	0.904	1.03	0.833	1.04	1.05	0.993	0.861	0.81	0.83	0.746	0.903	0.959	0.877	0.882	0.933	0.816
ABC-1	–	–	–	–	–	0.74	0.77	0.741	0.683	0.654	1.07	0.883	0.742	–	1.03	–	–	–	–	–
BEN	0.883	0.629	0.784	0.637	0.725	1.04	0.883	0.847	0.76	0.742	0.685	0.583	0.531	0.531	0.547	0.083	0.0587	0.063	0.0608	0.0559
CAL-12T	1.15	1.19	1.21	1.13	1.06	0.682	0.894	0.727	0.707	0.656	0.723	0.837	0.887	0.529	0.655	1.14	1.26	1.39	1.13	1.02
COR-L23	0.198	0.206	0.198	0.214	0.202	0.936	0.984	0.641	0.737	0.762	0.54	0.539	0.411	0.426	0.337	0.98	1.12	0.847	0.916	0.879
COR-L 105	0.983	1.16	1.14	1.17	1.14	0.942	1.29	1.19	1.25	0.747	0.844	0.896	0.855	0.874	0.927	0.715	0.856	0.882	0.983	0.617
Calu-6	–	–	–	–	–	1.02	0.886	0.729	0.91	0.954	–	–	–	–	–	0.804	0.801	0.694	0.784	0.827
ChaGo-K-1	0.274	0.249	0.251	0.253	0.275	–	–	–	–	–	0.848	0.886	0.844	0.818	0.918	0.98	0.987	1.07	–	0.991
EKVX	0.423	0.54	0.355	0.43	0.362	0.971	1.04	0.922	0.996	0.937	0.69	0.811	0.709	0.819	0.542	0.906	0.94	0.908	0.878	0.966
EMC-BAC-2	0.44	0.441	0.394	–	0.419	0.873	0.813	0.75	0.804	0.811	0.628	0.462	0.537	–	0.522	1.26	1.27	1.09	1.31	1.15
EPLC-272H	0.27	0.346	0.218	0.395	0.325	1.31	1.07	0.846	1.25	1.25	0.398	0.671	0.492	0.681	0.484	1.16	1.09	1.01	0.974	0.96
H3255	0.585	0.577	0.551	0.554	0.558	0.964	0.995	0.985	0.991	0.934	0.759	0.913	0.843	0.787	0.869	0.528	0.473	0.534	0.5	0.543
HARA	0.292	0.31	0.217	0.248	0.244	0.971	0.939	0.709	0.748	0.648	0.655	0.512	0.584	0.606	0.51	1.23	1.27	1.17	1.07	0.854
HCC-15	0.218	0.229	0.214	0.184	0.207	0.957	0.932	0.678	0.787	0.772	0.877	0.892	0.823	0.889	0.81	0.726	0.793	0.703	0.617	0.602
HCC-44	0.694	0.738	0.658	0.741	0.65	0.683	0.727	0.56	0.683	0.615	1.09	1.05	0.971	1.04	1.16	0.987	1.06	0.969	1.05	0.871
HCC-78	0.903	0.636	0.821	0.919	0.89	0.524	0.461	0.44	0.374	0.392	0.425	0.523	0.513	0.402	0.459	0.673	0.714	0.667	0.644	0.863

— the supplement of paper PMC10307832
